Laboratory results: PubChem BioAssay (NCI)
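Test compounds were applied to cells in 96-well plates for 48 hours at 5 doses. TGI: concentration producing complete growth inhibition.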

How the values were obtained:
Assay in all cases: growth of human tumour cells (NCI), 48 h
[1] = system: 786-0 renal
[2] = system: A498 renal
[3] = system: A549 NSCLC
[4] = system: ACHN renal
[5] = system: BT-549 breast
[6] = system: CAKI-1 renal
[7] = system: CCRF-CEM leukemia
[8] = system: COLO 205 colon
[9] = system: DU-145 prostate
[10] = system: EKVX NSCLC
[11] = system: HCC-2998 colon
[12] = system: HCT-116 colon
[13] = system: HCT-15 colon
[14] = system: HL-60(TB) leukemia
[15] = system: HOP-62 NSCLC
[16] = system: HOP-92 NSCLC
[17] = system: HT29 colon
[18] = system: IGROV1 ovarian
[19] = system: K-562 leukemia
[20] = system: KM12 colon
[21] = system: LOX IMVI melanoma
[22] = system: M14 melanoma
[23] = system: MALME-3M melanoma
[24] = system: MCF7 breast
[25] = system: MDA-MB-231 breast
[26] = system: MDA-MB-435
[27] = system: MDA-N
[28] = system: MOLT-4 leukemia
[29] = system: NCI-H226 lung
[30] = system: NCI-H23 lung
[31] = system: NCI-H460 lung
[32] = system: NCI/ADR-RES ovarian
[33] = system: OVCAR-3 ovarian
[34] = system: OVCAR-4 ovarian
[35] = system: OVCAR-5 ovarian
[36] = system: OVCAR-8 ovarian
[37] = system: PC-3 prostate
[38] = system: RPMI-8226 leukemia
[39] = system: RXF 393 renal
[40] = system: SF-268 CNS
[41] = system: SF-295 CNS
[42] = system: SF-539 CNS
[43] = system: SK-MEL-2 melanoma
[44] = system: SK-MEL-28 melanoma
[45] = system: SK-MEL-5 melanoma
[46] = system: SN12C renal
[47] = system: SNB-19 CNS
[48] = system: SNB-75 CNS
[49] = system: SR leukemia
[50] = system: SW-620 colon
[51] = system: TK-10 renal
[52] = system: U251 CNS
[53] = system: UACC-257 melanoma
[54] = system: UO-31 renal
[55] = system: NCI-H522 lung
[56] = system: SK-OV-3 ovarian
[57] = system: T-47D breast
[58] = system: UACC-62 melanoma
[59] = system: HS 578T breast

Measured: TGI

COc1ccc(C2N(c3ccc(C)c(N=C=O)c3)C(=O)N3C(c4ccc(OC)cc4)N(c4ccc(C)c(N=C=O)c4)C(=O)N23)cc1 (stereo unspecified)
> 100 µM: [1] | [2] | [3] | [4] | [5] | [6] | [7] | [8] | [9] | [10] | [11] | [12] | [13] | [14] | [15] | [16] | [17] | [18] | [19] | [20] | [21] | [22] | [24] | [25] | [26] | [27] | [28] | [29] | [30] | [31] | [32] | [33] | [34] | [35] | [36] | [37] | [38] | [39] | [40] | [41] | [42] | [43] | [44] | [45] | [46] | [47] | [48] | [49] | [50] | [51] | [52] | [53] | [54]
96.1 µM: [23]

O=c1c(O)c(-c2ccccc2)oc2c(CP(=O)(O)O)cccc12
> 100 µM: [1] | [2] | [3] | [5] | [6] | [7] | [8] | [9] | [10] | [11] | [12] | [13] | [15] | [18] | [19] | [22] | [23] | [24] | [25] | [26] | [27] | [28] | [30] | [31] | [55] | [33] | [34] | [35] | [37] | [39] | [41] | [42] | [43] | [45] | [56] | [46] | [49] | [57] | [51] | [52] | [53] | [58]

O=C(Nc1ccc(Br)c2ccccc12)c1ccc2ccccc2c1O
19.2 µM: [36]
25.8 µM: [24]
> 100 µM: [4] | [7] | [10] | [19] | [28] | [34] | [47] | [49]
7.1 µM: [13]
35.2 µM: [52]
18.6 µM: [56]
8.65 µM: [41]
11.3 µM: [5]
6.83 µM: [55]
20.9 µM: [11]
6.39 µM: [29]
13.5 µM: [59]
23.9 µM: [53]
24.9 µM: [42] | [46]
16.8 µM: [25]
5.49 µM: [8]
13.7 µM: [20]
12.7 µM: [35]
18.3 µM: [22]
31.8 µM: [40]
15.6 µM: [27]
25.2 µM: [6]
14.8 µM: [15] | [50]
11.2 µM: [12]
16.4 µM: [18]
13.1 µM: [31]
14.5 µM: [57]
35.7 µM: [33]
30.3 µM: [51]
3.78 µM: [45]
6.21 µM: [37]
15 µM: [58]
9.3 µM: [23]
88.8 µM: [14]
11 µM: [3]
15.9 µM: [1]
8.68 µM: [48]
85.4 µM: [9]
15.3 µM: [17]
12.9 µM: [32] | [54]
48.1 µM: [44]
10.2 µM: [30]
3 µM: [43]
30.8 µM: [2]

O=[N+]([O-])c1c(O)c2nonc2c2nn(-c3ccccc3)nc12
79.1 µM: [29]
> 100 µM: [1] | [3] | [4] | [5] | [6] | [7] | [8] | [9] | [10] | [11] | [12] | [13] | [14] | [15] | [16] | [59] | [17] | [18] | [19] | [20] | [21] | [22] | [23] | [24] | [26] | [27] | [28] | [30] | [31] | [55] | [32] | [33] | [34] | [35] | [36] | [37] | [38] | [40] | [41] | [42] | [43] | [44] | [45] | [56] | [46] | [47] | [48] | [49] | [50] | [57] | [51] | [52] | [53] | [58] | [54]
